Measurements from ChEMBL document CHEMBL1124438, “Analysis of the in vitro antiviral activity of certain ribonucleosides against parainfluenza virus using a novel computer aided receptor modeling procedure” (1989).

Tests used:
Format in all cases: functional
Human alphaherpesvirus 2 = experiment: Virus rating of against herpes simplex virus type 2
Human adenovirus 2 = experiment: Virus rating against adenovirus type 2
Human rhinovirus 1A = experiment: Virus rating against rhinovirus type 1A
Human respirovirus 3 = experiment: Virus rating against parainfluenza virus type 3

| SMILES | Rating (Human alphaherpesvirus 2) | Rating (Human adenovirus 2) | Rating (Human rhinovirus 1A) | Rating (Human respirovirus 3) |
| --- | --- | --- | --- | --- |
| CSc1ncnc2c1ccn2[C@@H]1O[C@H](CO)[C@@H](O)[C@H]1O | 0 | 0 | 0.6 | 0.9 |
| O=C1N=CN=C2C([C@@H]3O[C@H](CO)[C@@H](O)[C@H]3O)=NNC12 (stereo not given in full) | 0 | 0 | 0.3 | 0.94 |
| OC[C@H]1O[C@@H](C2=NNC3C(=S)N=CN=C23)[C@H](O)[C@@H]1O (stereo not given in full) | 0 | 1 | 0.9 | 1.1 |
| CSc1ncnc2c([C@@H]3O[C@H](CO)[C@@H](O)[C@H]3O)n[nH]c12 | 0.3 | 0.8 | 0 | 1.35 |
| COc1c([C@@H]2O[C@H](CO)[C@@H](O)[C@H]2O)nn(C)c1C(N)=O | 0.3 | 1 | 0 | 1.65 |
| NC(=O)C1NN=C([C@@H]2O[C@H](CO)[C@@H](O)[C@H]2O)C1=O (stereo not given in full) | 1 | 0 | 0.6 | 1.65 |
| NC(=O)c1ccnc([C@@H]2O[C@H](CO)[C@@H](O)[C@H]2O)n1 | 0 | 0 | 0 | 0.25 |
| O=c1[nH]c(=O)c2[nH]nc([C@@H]3O[C@H](CO)[C@@H](O)[C@H]3O)c2[nH]1 | 0.12 | 0 | 0 | 0.68 |
| Nc1[nH]c(=O)nc2c([C@@H]3O[C@H](CO)[C@@H](O)[C@H]3O)n[nH]c12 | 0.75 | 0 | 0 | 1.22 |
| Cn1nc([C@@H]2O[C@H](CO)[C@@H](O)[C@H]2O)c2ncnc(N)c21 | 0.2 | 0 | 0 | 0.86 |
| CN1C=NC(N)=C2NNC([C@@H]3O[C@H](CO)[C@@H](O)[C@H]3O)=C21 | 0 | 0 | 0 | 1.28 |
| Cn1cnc2c([C@@H]3O[C@H](CO)[C@@H](O)[C@H]3O)nnc-2c1N | 0.88 | 0 | 0 | 1.16 |
| Cn1nc([C@@H]2O[C@H](CO)[C@@H](O)[C@H]2O)c2nc(=O)[nH]c(N)c21 |  |  |  | 0.88 |
| Nc1cc2c(ncn2[C@@H]2O[C@H](CO)[C@@H](O)[C@H]2O)c(=O)[nH]1 | 1.06 | 0.2 | 1 | 0.8 |
| CSc1ncnc2c1ncn2[C@@H]1O[C@H](CO)[C@@H](O)[C@H]1O | 1.25 | 0 | 0.8 | 2.2 |
| OC[C@H]1O[C@@H](n2ccc3c(S)ncnc32)[C@H](O)[C@@H]1O |  |  |  | 1.15 |
| OC[C@H]1OC(n2ncc3c(S)ncnc32)[C@H](O)[C@@H]1O (stereo not given in full) | 0 | 0 | 0 | 0.7 |
| CSc1ncnc2c1cnn2C1O[C@H](CO)[C@@H](O)[C@H]1O (stereo not given in full) | 0 | 0 | 0.6 | 1.05 |
| Nc1nn(C2O[C@H](CO)[C@@H](O)[C@H]2O)c2nc[nH]c(=O)c12 (stereo not given in full) | 0 | 0 | 0 | 0.28 |
| OC[C@H]1OC(n2cc3c(O)nc(Cl)nc3n2)[C@H](O)[C@@H]1O (stereo not given in full) | 0 | 0 | 0 | 0.25 |
| Nc1nc(Cl)cc2c1ncn2C1O[C@H](CO)[C@@H](O)[C@H]1O (stereo not given in full) | 0 | 0 | 0 | 0.35 |
| Nc1nc(Cl)nc2c1cnn2C1O[C@H](CO)[C@@H](O)[C@H]1O (stereo not given in full) | 0 | 0 | 0 | 0.15 |
| NC(=O)c1cn(C2O[C@H](CO)[C@@H](O)[C@H]2O)[nH]c1=O (stereo not given in full) | 0 | 0 | 0 | 0.15 |
| Nc1ncnc2c([C@@H]3O[C@H](CO)[C@@H](O)[C@H]3O)[nH]nc12 [FORMYCIN] | 0.2 | 0 | 0.1 | 1.4 |
| O=c1[nH]cnc2c1ccn2[C@@H]1O[C@H](CO)[C@@H](O)[C@H]1O [IMMUNICILLIN H] |  | 0 | 0 | 0.08 |
| NC(=O)c1ncn([C@@H]2O[C@H](CO)[C@@H](O)[C@H]2O)n1 [RIBAVIRIN] | 1.4 | 0.3 | 0.7 | 1.3 |
| N=C(N)c1ncn([C@@H]2O[C@H](CO)[C@@H](O)[C@H]2O)n1 [TARIBAVIRIN] | 0 | 0 | 0.2 | 1.2 |
| NC(=O)c1csc([C@@H]2O[C@H](CO)[C@@H](O)[C@H]2O)n1 [TIAZOFURIN] | 1.19 | 0.2 | 0 | 1.3 |
